From patent US6818643B1, “Neurotrophic bicyclic diamides” (Bristol-Myers Squibb Company, priority 1999, dated 2004)

Each compound was assayed against FKBP12 (Homo sapiens, UniProt P62942) (assay: Fluorescence Polarization (FP) Assay of FKBP12 Binding). Conditions: Table 1; 1 μM compound; 100 nM fluorescent ligand, 200 nM FKBP12; read-out: % FP inhibition at 1 μM.
Experimental: Fluorescence Polarization (FP) Assay of FKBP12 Binding
The buffer (25 mM HEPES, 100 mM sodium chloride, pH 7.5) with pre-mixed enzyme and fluorescent ligand is distributed into wells (190 μL/well). Inhibitors are added as 10 μL of a 10% dimethylsulfoxide solution in the same buffer. FP is measured with an excitation wavelength of 485 nm and emission wavelength of 520 nm.

Chain of FKBP12 (P62942 whole entry, species assumed): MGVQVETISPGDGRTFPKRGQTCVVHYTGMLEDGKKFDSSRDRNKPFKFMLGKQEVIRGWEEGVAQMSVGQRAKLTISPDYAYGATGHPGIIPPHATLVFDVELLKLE

Compound | inhibition at 1 µM [%]
COc1cc(CCCN2C[C@H]3CC[C@@H](C2=O)N3C(=O)C(=O)c2cc(OC)c(OC)c(OC)c2)cc(OC)c1OC [Example 6, (1S,5R)-8-(3,4,5-Trimethoxyphenyl)oxalyl-3,8-diaza-3-[3-(3,4,5-trimethoxyphenyl)propyl]bicyclo[3.2.1]octan-2-one] | 47
COc1cc(C(=O)C(=O)N2C3CCC2C(=O)N(CCCO)C3)cc(OC)c1OC [Example 42, (1S,5R)-8-(3,4,5-trimethoxyphenyl)oxalyl-3,8-diaza-3-(3-hydroxypropyl)bicyclo[3.2.1]octan-2-one] | 19
COc1cc(C(F)(F)C(=O)N2C3CCC2C(=O)N(CCCCc2ccccc2)C3)cc(OC)c1OC [Example 32, (1S,5R)-8-(3,4,5-Trimethoxyphenyl)difluoroacetyl-3,8-diaza-3-(4-phenylbutyl)bicyclo-[3.2.1]octan-2-one] | 4
COc1ccc(CCCN2CC3CCCC(C2=O)N3C(=O)C(=O)c2cc(OC)c(OC)c(OC)c2)cc1OC (stereo not drawn) [Example 16, 9-(3,4,5-Trimethoxyphenyl)oxalyl-3,9-diaza-3-[3-(3,4-dimethoxyphenyl)propyl]bicyclo[3.3.1]nonan-2-one] | 76
COc1ccc(CCCCN2CC3CCC(C2=O)N3C(=O)C(=O)c2cc(OC)c(OC)c(OC)c2)cc1OC [Example 4, (1S,5R)-8-(3,4,5-Trimethoxyphenyl)oxalyl-3,8-diaza-3-[4-(3,4-dimethoxyphenyl)butyl]bicyclo[3.2.1]octan-2-one] | 15
COc1cc(C(F)(F)C(=O)N2C3CCC2C(=O)N(CCCc2ccccc2)C3)cc(OC)c1OC [Example 27, (1S,5R)-8-(3,4,5-Trimethoxyphenyl)difluoroacetyl-3,8-diaza-3-(3-phenylpropyl)bicyclo[3.2.1]octan-2-one] | 22
COc1cc(C(=O)C(=O)N2C3CCC2C(=O)N(CCCCc2ccccc2)C3)cc(OC)c1OC [Example 7, (1S,5R)-8-(3,4,5-Trimethoxyphenyl)oxalyl-3,8-diaza-3-(4-phenylbutyl)bicyclo[3.2.1]octan-2-one] | 6
CCC(C)(C)C(=O)C(=O)N1C2CCC1C(=O)N(CCCc1cc(OC)c(OC)c(OC)c1)C2 (stereo not drawn) [Example 39, 1-{3,8-Diaza-2-oxo-3-[3-(3,4,5-trimethoxyphenyl)propyl]bicyclo[3.2.1]oct-8-yl}-3,3-dimethylpentane-1,2-dione] | 4
COc1ccc(CCCCN2CC3CCCC(C2=O)N3C(=O)C(=O)c2cc(OC)c(OC)c(OC)c2)cc1OC (stereo not drawn) [Example 17, 9-(3,4,5-Trimethoxyphenyl)oxalyl-3,9-diaza-3-[4-(3,4-dimethoxyphenyl)butyl]bicyclo[3.3.1]-nonan-2-one] | 79
COc1cc(CCCN2CC3CCCC(C2=O)N3C(=O)C(=O)c2cc(OC)c(OC)c(OC)c2)cc(OC)c1OC (stereo not drawn) [Example 15, 9-(3,4,5-Trimethoxyphenyl)oxalyl-3,9-diaza-3-[3-(3,4,5-trimethoxyphenyl)propyl]bicyclo[3.3.1]nonan-2-one] | 44
COc1ccc(CCCN2CC3CCC(C2=O)N3C(=O)C(F)(F)c2cc(OC)c(OC)c(OC)c2)cc1OC [Example 28, (1S,5R)-8-(3,4,5-Trimethoxyphenyl)difluoroacetyl-3,8-diaza-3-[3-(3,4-dimethoxyphenyl)propyl]bicyclo[3.2.1]octan-2-one] | 13
COC(=O)C(=O)N1C2CCCC1C(=O)N(CCCc1cc(OC)c(OC)c(OC)c1)C2 (stereo not drawn) [Example 40, Methyl-2-{3,9-diaza-2-oxo-3-[3-(3,4,5-trimethoxyphenyl)propyl]bicyclo[3.3.1]non-9-yl}-2-oxoacetate] | 6
CCC(C)(C)C(=O)C(=O)N1C2CCCC1C(=O)N(CCCc1cc(OC)c(OC)c(OC)c1)C2 (stereo not drawn) [Example 41, 1-{3,9-Diaza-2-oxo-3-[3-(3,4,5-trimethoxyphenyl)propyl]bicyclo[3.3.1]non-9-yl}-3,3-dimethylpentane-1,2-dione] | 4
COc1cc(C(=O)C(=O)N2C3CCC2C(=O)N(CCCOc2cccnc2)C3)cc(OC)c1OC [Example 8, (1S,5R)-8-(3,4,5-Trimethoxyphenyl)oxalyl-3,8-diaza-3-(3-(3-pyridyloxy)propyl)-bicyclo[3.2.1]octan-2-one] | 98

Same assay, conditions: Table 1; rotamase Ki derived from FP assay

Compound | Ki [nM]
COc1cc(CCCN2C[C@H]3CC[C@@H](C2=O)N3C(=O)C(=O)c2cc(OC)c(OC)c(OC)c2)cc(OC)c1OC [Example 6, (1S,5R)-8-(3,4,5-Trimethoxyphenyl)oxalyl-3,8-diaza-3-[3-(3,4,5-trimethoxyphenyl)propyl]bicyclo[3.2.1]octan-2-one] | 242
COc1ccc(CCCN2CC3CCCC(C2=O)N3C(=O)C(=O)c2cc(OC)c(OC)c(OC)c2)cc1OC (stereo not drawn) [Example 16, 9-(3,4,5-Trimethoxyphenyl)oxalyl-3,9-diaza-3-[3-(3,4-dimethoxyphenyl)propyl]bicyclo[3.3.1]nonan-2-one] | 150
COc1cc(C(=O)C(=O)N2C3CCCC2C(=O)N(CCCc2ccccc2)C3)cc(OC)c1OC (stereo not drawn) [Example 18, 9-(3,4,5-Trimethoxyphenyl)oxalyl-3,9-diaza-3-(3-phenylpropyl)bicyclo[3.3.1]nonan-2-one] | 60
COc1ccc(CCCCN2CC3CCCC(C2=O)N3C(=O)C(=O)c2cc(OC)c(OC)c(OC)c2)cc1OC (stereo not drawn) [Example 17, 9-(3,4,5-Trimethoxyphenyl)oxalyl-3,9-diaza-3-[4-(3,4-dimethoxyphenyl)butyl]bicyclo[3.3.1]-nonan-2-one] | 140
COc1cc(CCCN2CC3CCCC(C2=O)N3C(=O)C(=O)c2cc(OC)c(OC)c(OC)c2)cc(OC)c1OC (stereo not drawn) [Example 15, 9-(3,4,5-Trimethoxyphenyl)oxalyl-3,9-diaza-3-[3-(3,4,5-trimethoxyphenyl)propyl]bicyclo[3.3.1]nonan-2-one] | 100
COc1cc(C(=O)C(=O)N2C3CCCC2C(=O)N(CCCCc2ccccc2)C3)cc(OC)c1OC (stereo not drawn) [Example 19, 9-(3,4,5-Trimethoxyphenyl)oxalyl-3,9-diaza-3-(4-phenylbutyl)bicyclo[3.3.1]nonan-2-one] | 85
COc1cc(C(=O)C(=O)N2C3CCCC2C(=O)N(CCCCCc2ccccc2)C3)cc(OC)c1OC (stereo not drawn) [Example 20, 9-(3,4,5-Trimethoxyphenyl)oxalyl-3,9-diaza-3-(5-phenylpentyl)bicyclo[3.3.1]nonan-2-one] | 152
COc1ccc(CCCN2CC3CCCC(C2=O)N3C(=O)C(F)(F)c2cc(OC)c(OC)c(OC)c2)cc1OC (stereo not drawn) [Example 35, 9-(3,4,5-Trimethoxyphenyl)difluoroacetyl-3,9-diaza-3-[3-(3,4-dimethoxyphenyl)propyl]bicyclo[3.3.1]nonan-2-one] | 360

Same assay, conditions: Table 2; 1 μM compound; 100 nM fluorescent ligand, 200 nM FKBP12; read-out: % FP inhibition at 1 μM

Compound | inhibition at 1 µM [%]
COc1ccc(CCCC(CCCc2ccccc2)N2CC3CCC(C2=O)N3C(=O)C(=O)c2cc(OC)c(OC)c(OC)c2)cc1OC [Example 9, (1S,5R)-8-(3,4,5-Trimethoxyphenyl)oxalyl-3,8-diaza-3-[4-(3,4-dimethoxyphenyl)-1-(3-phenylpropyl)butyl]bicyclo[3.2.1]octan-2-one] | 1
COc1cc(CCCC(CCCc2ccccc2)CN2CC3CCCC(C2=O)N3C(=O)C(F)(F)c2cc(OC)c(OC)c(OC)c2)cc(OC)c1OC (stereo not drawn) [Example 38, 9-(3,4,5-Trimethoxyphenyl)difluoroacetyl-3,9-diaza-3-[2-(3-phenylpropyl)-5-(3,4,5-trimethoxyphenyl)pentyl]bicyclo[3.3.1]-nonan-2-one] | 50
COc1cc(C(=O)C(=O)N2C3CCCC2C(=O)N(CC(CCCc2ccccc2)CCCc2ccccc2)C3)cc(OC)c1OC (stereo not drawn) [Example 22, 9-(3,4,5-Trimethoxyphenyl)oxalyl-3,9-diaza-3-[5-phenyl-2-(3-phenylpropyl)pentyl]bicyclo[3.3.1]nonan-2-one] | 17
COc1cc(CCCC(CCCc2ccccc2)CN2CC3CCCC(C2=O)N3C(=O)C(=O)c2cc(OC)c(OC)c(OC)c2)cc(OC)c1OC (stereo not drawn) [Example 23, 9-(3,4,5-Trimethoxyphenyl)oxalyl-3,9-diaza-3-[2-(3-phenylpropyl)-5-(3,4,5-trimethoxyphenyl)pentyl]bicyclo[3.3.1]-nonan-2-one] | 81
COc1cc(CCCC(CCCc2ccccc2)CN2CC3CCC(C2=O)N3C(=O)C(=O)c2cc(OC)c(OC)c(OC)c2)cc(OC)c1OC [Example 11, (1S,5R)-8-(3,4,5-Trimethoxyphenyl)oxalyl-3,8-diaza-3-[2-(3-phenylpropyl)-5-(3,4,5-trimethoxyphenyl)pentyl]bicyclo[3.2.1]octan-2-one] | 17
COc1cc(C(F)(F)C(=O)N2C3CCCC2C(=O)N(CC(CCCc2ccccc2)CCCc2ccccc2)C3)cc(OC)c1OC (stereo not drawn) [Example 37] | 4
COc1cc(CCCC(CCCc2ccccc2)CN2CC3CCC(C2=O)N3C(=O)C(F)(F)c2cc(OC)c(OC)c(OC)c2)cc(OC)c1OC [Example 34, (1S,5R)-8-(3,4,5-Trimethoxyphenyl)difluoroacetyl-3,8-diaza-3-[2-(3-phenylpropyl)-5-(3,4,5-trimethoxyphenyl)pentyl]bicyclo[3.2.1]octan-2-one] | 11
COc1ccc(CCCC(CCCc2ccccc2)N2CC3CCCC(C2=O)N3C(=O)C(=O)c2cc(OC)c(OC)c(OC)c2)cc1OC (stereo not drawn) [Example 21, 9-(3,4,5-Trimethoxyphenyl)oxalyl-3,9-diaza-3-[4-(3,4-dimethoxyphenyl)-1-(3-phenylpropyl)butyl]bicyclo[3.3.1]nonan-2-one] | 1
COc1cc(C(=O)C(=O)N2C3CCC2C(=O)N(CC(CCCc2ccccc2)CCCc2ccccc2)C3)cc(OC)c1OC [Example 10, (1S,5R)-8-(3,4,5-Trimethoxyphenyl)oxalyl-3,8-diaza-3-[5-phenyl-2-(3-phenyl-propyl)pentyl]bicyclo[3.2.1]-octan-2-one] | 14

Same assay, conditions: Table 2; rotamase Ki derived from FP assay

Compound | Ki [nM]
COc1ccc(CCC(Cc2ccc(OC)c(OC)c2)CN2C[C@H]3CC[C@@H](C2=O)N3C(=O)C(=O)c2cc(OC)c(OC)c(OC)c2)cc1OC (stereo partly drawn) [Example 13, (1S,5R)-8-(3,4,5-Trimethoxyphenyl)oxalyl-3,8-diaza-3-[4-(3,4-dimethoxyphenyl)-2-((3,4-dimethoxyphenyl)methyl)butyl]bicyclo[3.2.1]octan-2-one] | 122
COc1ccc(CCC(CCc2ccccc2)CN2CC3CCCC(C2=O)N3C(=O)C(=O)c2cc(OC)c(OC)c(OC)c2)cc1OC (stereo not drawn) [Example 26, 9-(3,4,5-Trimethoxyphenyl)oxalyl-3,9-diaza-3-[4-(3,4-dimethoxyphenyl)-2-(2-phenylethyl)butyl]-bicyclo[3.3.1]nonan-2-one] | 51
COc1cc(CCCC(CCCc2ccccc2)CN2CC3CCCC(C2=O)N3C(=O)C(=O)c2cc(OC)c(OC)c(OC)c2)cc(OC)c1OC (stereo not drawn) [Example 23, 9-(3,4,5-Trimethoxyphenyl)oxalyl-3,9-diaza-3-[2-(3-phenylpropyl)-5-(3,4,5-trimethoxyphenyl)pentyl]bicyclo[3.3.1]-nonan-2-one] | 44
COc1ccc(CCCC(CCCc2ccc(OC)c(OC)c2)CN2C[C@H]3CC[C@@H](C2=O)N3C(=O)C(=O)c2cc(OC)c(OC)c(OC)c2)cc1OC [Example 12, (1S,5R)-8-(3,4,5-Trimethoxyphenyl)oxalyl-3,8-diaza-3-[5-(3,4-dimethoxyphenyl)-2-(3-(3,4-dimethoxyphenyl)propyl)pentyl]bicyclo[3.2.1]octan-2-one] | 47

Same assay, conditions: read-out: % FP inhibition at 1 μM

Compound | inhibition at 1 µM [%]
COc1ccc(CCCN2CC3CCCC(C2=O)N3C(=O)C(F)(F)c2cc(OC)c(OC)c(OC)c2)cc1OC (stereo not drawn) [Example 35, 9-(3,4,5-Trimethoxyphenyl)difluoroacetyl-3,9-diaza-3-[3-(3,4-dimethoxyphenyl)propyl]bicyclo[3.3.1]nonan-2-one] | 47
